The assay deals with T1, human LMPTP-A (Homo sapiens, UniProt P24666).
T1 sequence (P24666 1-158): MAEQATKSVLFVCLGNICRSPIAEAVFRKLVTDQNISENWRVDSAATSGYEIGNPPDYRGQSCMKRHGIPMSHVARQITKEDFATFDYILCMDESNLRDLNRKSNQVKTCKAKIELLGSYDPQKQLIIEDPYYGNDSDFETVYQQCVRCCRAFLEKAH
In words: Enzyme Assay of Inhibition of LMPTP-A. The format is biochemical. To be noted: phosphatase assay, OMFP or pNPP substrate, 50 mM Bis-Tris pH 6.0, 37° C. In short, it runs like this:
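Recombinant human LMPTP-A in 50 mM Bis-Tris pH 6.0, 1 mM DTT, 0.01% Triton X-100 at 37° C. Substrate OMFP read continuously by fluorescence (485/525 nm), or pNPP stopped with NaOH and read at 405 nm. IC50 taken from inhibitor concentration versus % activity plots.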

The structures appear in SMILES notation.

Consider `Nc1ncn(Cc2c(Cl)cccc2Cl)c2nc(-c3ccc4ocnc4c3)nc1-2` [8-Benzoxazol-5-yl-3-[(2,6-dichlorophenyl)methyl]-3-hydropurine-6-ylamine], for which the IC50 (in general, the concentration that gives 50% inhibition) is at most 1000 nM.
In the case of `Clc1cccc(Nc2ncn(Cc3c(Cl)cccc3Cl)c3ncnc2-3)c1` [{3-[(2,6-Dichlorophenyl)methyl](3-hydropurin-6-yl)}(3-chlorophenyl)amine], the IC50 fell in the range of 1000 to 20000 nM.
Regarding `Nc1ncn(Cc2ccc(Br)cc2)c2ncnc1-2` [3-(4-Bromo-benzyl)-3H-purin-6-ylamine], the IC50 lay within 1000 to 20000 nM.
`Cc1ccccc1Cc1nc2c(N)ncn(Cc3c(Cl)cccc3Cl)c-2n1` [3-[(2,6-dichlorophenyl)methyl]-8-[(2-methylphenyl)methyl]-3-hydropurine-6-ylamine] displayed an IC50 of at most 1000 nM.
For the compound `Nc1ncn(Cc2c(Cl)cccc2Cl)c2nc(-c3ccoc3)nc1-2` [3-[(2,6-Dichlorophenyl)methyl]-8-(3-furyl)-3-hydropurine-6-ylamine], the IC50 was at most 1000 nM.
Then `Nc1ncn(Cc2c(Cl)cccc2Cl)c2nc(C3=CCCCC3)nc1-2` [3-[(2,6-Dichlorophenyl)methyl]-8-cyclohex-1-enyl-3-hydropurine-6-ylamine], with at most 1000 nM; and `Clc1ccccc1Nc1ncn(Cc2c(Cl)cccc2Cl)c2ncnc1-2` [{3-[(2,6-Dichlorophenyl)methyl](3-hydropurine-6-yl)}(2-chlorophenyl)amine], with at most 1000 nM.
The same measure for `Nc1ncn(Cc2c(Cl)cccc2Cl)c2nc(-c3ccccc3F)nc1-2` [3-[(2,6-Dichlorophenyl)methyl]-8-(2-fluorophenyl)-3-hydropurine-6-ylamine]: at most 1000 nM; for `Nc1ncn(Cc2cccc(O)c2)c2ncnc1-2` [3-(6-Amino-purin-3-ylmethyl)-phenol]: 1000 to 20000 nM.
In the case of `Nc1ncn(Cc2c(F)cccc2F)c2ncnc1-2`, the IC50 lay in the range of 1000 to 20000 nM.
Compound `COCCCNc1ncn(Cc2c(Cl)cccc2Cl)c2ncnc1-2` [[3-(2,6-Dichloro-benzyl)-3H-purin-6-yl]-(3-methoxy-propyl)-amine] yielded an IC50 of 1000 to 20000 nM.
Then `COC(=O)c1cccc(Nc2ncn(Cc3c(Cl)cccc3Cl)c3ncnc2-3)c1` [Methyl 3-({3-[(2,6-dichlorophenyl)methyl]-3-hydropurin-6-yl}amino)benzoate], with 1000 to 20000 nM; and `Clc1ccc(Cl)c(Cn2cnc(NCc3ccco3)c3ncnc2-3)c1` [[3-(2,5-Dichloro-benzyl)-3H-purin-6-yl]-furan-2-ylmethyl-amine], with 1000 to 20000 nM.
The compound `Cn1ncc(Br)c1Cn1cnc(N)c2ncnc1-2` [3-[(4-bromo-1-methylpyrazol-5-yl)methyl]-3-hydropurine-6-ylamine] showed an IC50 of at most 1000 nM.
`CN1CCC(c2nc3c(N)ncn(Cc4c(Cl)cccc4Cl)c-3n2)CC1` [3-[(2,6-Dichlorophenyl)methyl]-8-(1-methyl(4-piperidyl))-3-hydropurine-6-ylamine] gave an IC50 of at most 1000 nM.
The same measure for `Nc1ncn(Cc2c(Cl)cccc2Cl)c2nc(CCc3ccccc3)nc1-2` [3-[(2,6-Dichlorophenyl)methyl]-8-(2-phenylethyl)-3-hydropurine-6-ylamine]: at most 1000 nM; for `Clc1cccc(Cl)c1Cn1cnc(NCc2ccncc2)c2ncnc1-2` [[3-(2,6-Dichloro-benzyl)-3H-purin-6-yl]-pyridin-4-ylmethyl-amine]: 1000 to 20000 nM; for `Fc1ccc(Cn2cnc(NCc3ccco3)c3ncnc2-3)cc1` [[3-(4-Fluoro-benzyl)-3H-purin-6-yl]-furan-2-ylmethyl-amine]: at least 20000 nM.
Turning to `Nc1ncn(Cc2ccccc2Br)c2ncnc1-2` [3-(2-Bromo-benzyl)-3H-purin-6-ylamine], the 50% inhibitory concentration (IC50) lay within 1000 to 20000 nM.
In turn, `Fc1ccccc1Cn1cnc(NCc2ccco2)c2ncnc1-2` [[3-(2-Fluoro-benzyl)-3H-purin-6-yl]-furan-2-ylmethyl-amine] gave a half-inhibitory concentration (IC50) of at least 20000 nM.
With `Oc1ccc(Nc2ncn(Cc3c(Cl)cccc3Cl)c3ncnc2-3)cc1` [4-({3-[(2,6-Dichlorophenyl)methyl]-3-hydropurin-6-yl}amino)phenol], the IC50 was 1000 to 20000 nM.
Compound `Nc1ncn(Cc2c(Cl)cccc2Cl)c2nc(-c3ccc(F)cc3)nc1-2` [3-[(2,6-Dichlorophenyl)methyl]-8-(4-fluorophenyl)-3-hydropurine-6-ylamine] gave an IC50 of at most 1000 nM.
In turn, `Cc1noc(C)c1Cn1cnc(N)c2ncnc1-2` [3-((3,5-dimethylisoxazol-4-yl)methyl)-3H-purin-6-amine] registered a concentration for half-maximal inhibition (IC50) of 1000 to 20000 nM.
On to `Nc1ncn(Cc2c(Cl)ccnc2F)c2ncnc1-2` [3-[(4-chloro-2-fluoro-3-pyridyl)methyl]-3-hydropurine-6-ylamine], for which the IC50 was 1000 to 20000 nM.
The same measure for `Cc1ccc(CNc2ncn(Cc3c(Cl)cccc3Cl)c3ncnc2-3)cc1` [[3-(2,6-Dichloro-benzyl)-3H-purin-6-yl]-(4-methyl-benzyl)-amine]: 1000 to 20000 nM; for `Clc1cccc(Nc2ncn(Cc3c(Cl)cccc3Cl)c3ncnc2-3)c1Cl` [(2,3-Dichlorophenyl){3-[(2,6-dichlorophenyl)methyl](3-hydropurin-6-yl)}amine]: 1000 to 20000 nM; for `Nc1ncn(Cc2ccsc2)c2ncnc1-2` [3-Thiophen-3-ylmethyl-3H-purin-6-ylamine]: at least 20000 nM.
`Fc1ccc(CNc2ncn(Cc3c(Cl)cccc3Cl)c3ncnc2-3)cc1` [[3-(2,6-Dichloro-benzyl)-3H-purin-6-yl]-(4-fluoro-benzyl)-amine] showed an IC50 of 1000 to 20000 nM.
As for `Nc1ncn(Cc2ccccc2F)c2ncnc1-2` [3-(2-Fluoro-benzyl)-3H-purin-6-ylamine], the half-inhibitory concentration (IC50) lay in the range of 1000 to 20000 nM.
In the case of `Nc1ncn(Cc2c(F)ccc(F)c2F)c2ncnc1-2` [3-(2,3,6-Trifluoro-benzyl)-3H-purin-6-ylamine], the IC50 is 1000 to 20000 nM.
As for `Cc1ccc(Nc2ncn(Cc3c(Cl)cccc3Cl)c3ncnc2-3)cc1` [{3-[(2,6-Dichlorophenyl)methyl](3-hydropurin-6-yl)}(4-methylphenyl)amine], the half-maximal inhibitory concentration (IC50) was in the range of 1000 to 20000 nM.
`Cc1nc2c(N)ncn(Cc3c(Cl)cccc3Cl)c-2n1` [3-[(2,6-Dichlorophenyl)methyl]-8-methyl-3-hydropurine-6-ylamine]: the IC50 was at most 1000 nM.
In turn, `Cc1c(Cl)cccc1Nc1ncn(Cc2c(Cl)cccc2Cl)c2ncnc1-2` [N-(3-Chloro-2-methylphenyl)-3-(2,6-dichlorobenzyl)-3H-purin-6-amine] gave a half-inhibitory concentration (IC50) of 1000 to 20000 nM.
`Cc1ccccc1Cn1cnc(N)c2ncnc1-2` [3-(2-Methyl-benzyl)-3H-purin-6-ylamine] displayed an IC50 of 1000 to 20000 nM.
On to `Nc1ncn(Cc2c(Cl)cccc2Cl)c2nc(-c3cccc(Cl)n3)nc1-2` [3-[(2,6-Dichlorophenyl)methyl]-8-(6-chloro(2-pyridyl))-3-hydropurine-6-ylamine], for which the IC50 is at most 1000 nM.
The same measure for `O=C(Nc1ncn(Cc2c(Cl)cccc2Cl)c2ncnc1-2)c1ccco1` [Furan-2-carboxylicacid [3-(2,6-dichloro-benzyl)-3H-purin-6-yl]-amide]: 1000 to 20000 nM.
`COc1ccc(CNc2ncn(Cc3c(Cl)cccc3Cl)c3ncnc2-3)c(OC)c1` [3-(2,6-dichlorobenzyl)-N-(2,4-dimethoxybenzyl)-3H-purin-6-amine] showed an IC50 of 1000 to 20000 nM.
`Nc1ncn(Cc2c(Cl)cccc2Cl)c2ncnc1-2` [3-<2,6-Dichloro-benzyl)-3H-purin-6-ylamine] displayed an IC50 of at most 1000 nM.
The same measure for `COc1ccc(-c2nc3c(N)ncn(Cc4c(Cl)cccc4Cl)c-3n2)cn1` [3-[(2,6-Dichlorophenyl)methyl]-8-(6-methoxy(3-pyridyl))-3-hydropurine-6-ylamine]: at most 1000 nM; for `Nc1ncn(Cc2c(Cl)cccc2Cl)c2nc(-c3cccc(F)c3)nc1-2` [3-[(2,6-Dichlorophenyl)methyl]-8-(3-fluorophenyl)-3-hydropurine-6-ylamine]: at most 1000 nM.
Consider `O=C(O)c1ccc(Nc2ncn(Cc3c(Cl)cccc3Cl)c3ncnc2-3)cc1` [4-({3-[(2,6-Dichlorophenyl)methyl]-3-hydropurin-6-yl}amino)benzoic acid], for which the concentration for half-maximal inhibition (IC50) is 1000 to 20000 nM.
`Clc1cccc(Cl)c1Cn1cnc(Nc2cccc(OCc3ccccc3)c2)c2ncnc1-2` [N-(3-(benzyloxy)phenyl)-3-(2,6-dichlorobenzyl)-3H-purin-6-amine] came in with an IC50 of 1000 to 20000 nM.
Then `Nc1ncn(Cc2c(Cl)cccc2Cl)c2nc(C(F)(F)C(F)(F)F)nc1-2` [3-[(2,6-dichlorophenyl)methyl]-8-(1,1,2,2,2-pentafluoroethyl)-3-hydropurine-6-ylamine], with at least 20000 nM; and `Nc1ncn(Cc2c(Cl)cccc2Cl)c2nc(-c3cncs3)nc1-2` [3-[(2,6-Dichlorophenyl)methyl]-8-(1,3-thiazol-5-yl)-3-hydropurine-6-ylamine], with at most 1000 nM.
Take `Nc1ncn(Cc2c(Cl)cccc2Cl)c2nc(/C=C/c3ccccc3)nc1-2` [8-((1E)-2-Phenylvinyl)-3-[(2,6-dichlorophenyl)methyl]-3-hydropurine-6-ylamine]: the concentration for half-maximal inhibition (IC50) was at most 1000 nM.
Take `Nc1ncn(Cc2c(Br)cncc2Br)c2ncnc1-2` [3-[(3,5-dibromo-4-pyridyl)methyl]-3-hydropurine-6-ylamine]: the 50% inhibitory concentration (IC50) is at most 1000 nM.
In the case of `Cn1cc(-c2nc3c(N)ncn(Cc4c(Cl)cccc4Cl)c-3n2)cn1` [3-[(2,6-Dichlorophenyl)methyl]-8-(1-methylpyrazol-4-yl)-3-hydropurine-6-ylamine], the IC50 was at most 1000 nM.
The compound `Nc1ncn(Cc2c(Cl)cccc2Cl)c2nc(-c3ccc(Cl)cc3)nc1-2` [3-[(2,6-Dichlorophenyl)methyl]-8-(4-chlorophenyl)-3-hydropurine-6-ylamine] displayed an IC50 of at most 1000 nM.
With `Nc1ncn(Cc2c(Cl)cccc2Cl)c2nc(Cc3ccc(Br)cc3)nc1-2` [3-[(2,6-Dichlorophenyl)methyl]-8-[(4-bromophenyl)methyl]-3-hydropurine-6-ylamine], the IC50 is at most 1000 nM.

These data come from patent publication US20200338084A1, “INHIBITORS OF LOW MOLECULAR WEIGHT PROTEIN TYROSINE PHOSPHATASE (LMPTP) AND USES THEREOF” (Sanford Burnham Prebys Medical Discovery Institute, priority 2018, published 2020).
